In one series the test system is Her2. The experiment in a line: Degradation of Her2 in BT-474 cells after treatment with compound (Western blot, Method 1). It counts as cell-based, human. The settings on record: for IC50: treated overnight in DMEM. The method, then: Human high-Her2 breast carcinoma BT474 (HTB-20), SK-BR-3 (HTB-30) and MCF-7 breast carcinoma (HTB-22) from American Type Culture Collection, VA, USA were grown in Dulbecco's modified Eagle's medium with 4 mM L-glutamine and antibiotics (100 IU/ml penicillin and 100 ug/ml streptomycine; GibcoBRL). To obtain exponential cell growth, cells were trypsinized, counted and seeded at a cell density of 0.5×10^6 cells/ml regularly, every 3 days. All experiments were performed on day 1 after cell passage.
BT-474 cells were treated with 0.5 μM, 2 μM, or 5 μM of 17AAG (a positive control) or 0.5 μM, 2 μM, or 5 μM of a compound of the invention overnight in DMEM medium. After treatment, each cytoplasmic sample was prepared from 1×10^6 cells by incubation of cell lysis buffer (#9803, cell Signaling Technology) on ice for 10 minutes. The resulting supernatant used as the cytosol fractions are dissolved with sample buffer for SDS-PAGE and run on a SDS-PAGE gel, blotted onto a nitrocellulose membrane by using semi-dry transfer. Non-specific binding to nitrocellulose was blocked with 5% skim milk in TBS with 0.5% Tween at room temperature for 1 hour, then probed with anti-Her2/ErB2 mAb (rabbit IgG, #2242, Cell Signaling) and anti-Tubulin (T9026, Sigma) as housekeeping control protein. HRP-conjugated goat anti-rabbit IgG (H+L) and HRP-conjugated horse anti-mouse IgG (H+L) were used as secondary Ab (#7074, #7076, Cell Signaling) and LumiGLO reagent, 20× Peroxide (#7003, Cell Signaling) was used for visualization.

Series [1] concerns canine osteosarcoma tumor cell line D17. The experiment in a line: SCID mouse xenograft model, canine osteosarcoma tumor cell line D17. It is filed as in vivo. The settings on record: D17 xenograft in SCID mice. The method, then: (§1) The human multiple myeloma cell line, RPMI 8226 (ATCC #CCL-155), and the canine osteosarcoma cell line, D-17 (ATCC #CCL-183), were obtained from the American Type Culture Collection (ATCC; Manassas, Va., USA). The cells were cultured in growth media prepared with RPMI Media 1640 (4.5 g/L glucose), 10% fetal bovine serum (FBS), 10 mM HEPES, 1% 100× Penicillin-Streptomycin, 1% 100× sodium pyruvate and 1% 100×MEM non-essential amino acids. FBS was obtained from ATCC and all other reagents were obtained from Invitrogen Corp. (Carlsbad, Calif., USA). Cells that had been cryopreserved in liquid nitrogen were rapidly thawed at 37° C. and transferred to a tissue culture flask containing growth media and then incubated at 37° C. in a 5% CO2 incubator. To expand the RPMI 8226 cell line, growth media was changed every 2-3 days and cultures were passaged 1:3 to 1:5 every 3-5 days. When the a 175 cm^2 flask reached approximately 20-40×10(6) total cells, the above passaging process was repeated until sufficient cells had been obtained for implantation into mice. […] The supernatant was aspirated and the cell pellet was resuspended in 10 mL of growth media and the cell number determined using a hemocytometer. […]
(§2) Tumors were then permitted to develop in vivo until the majority reached 75-250 mm^3 in tumor volume, which required ˜4 weeks following implantation for the RPMI 8226 model and ˜9 weeks for the D-17 model. […] Tumor volumes (V) were calculated by caliper measurement of the width (W), length (L) and thickness (T) of tumors using the following formula: V=0.5236×(L×W×T). Animals were randomized into treatment groups so that the average tumor volumes of each group were similar at the start of dosing. % T/C values, as a measure of efficacy, were determined as follows: • (i) If ΔT>0: % T/C=(ΔT/ΔC)×100 • (ii) If ΔT<0: % T/C=(ΔT/T0)×100 • (iii) ΔT=Change in average tumor volume between start of dosing and the end of study. • (iv) ΔC=Change in average tumor volume between start of dosing and the end of study. • (v) T0=Average tumor volume at start of dosing. […]

In series [2] the test system is human multiple myeloma tumor cell line RPMI 8226. The series is described as follows: SCID mouse xenograft model, human multiple myeloma tumor cell line RPMI 8226. It counts as in vivo. The settings on record: RPMI 8226 xenograft in SCID mice. The method, then:
as §1, §2

SMILES strings stand for the structures.

As to `CC(C)c1cc(-c2nnc(O)n2-c2ccc3c(c2)CCC3)c(O)cc1OP(=O)(O)O` [Compound 1, 4-(4-(2,3-dihydro-1H-inden-5-yl)-5-hydroxy-4H-1,2,4-triazol-3-yl)-5-hydroxy-2-isopropylphenyl dihydrogen phosphate], in the series on Her2, the IC50 amounted to 228 nM.

As for `CC(C)c1cc(-c2nnc(O)n2-c2ccc(N3CCOCC3)nc2)c(O)cc1OP(=O)(O)O` [Compound 2, 5-hydroxy-4-(5-hydroxy-4-(6-morpholinopyridin-3-yl)-4H-1,2,4-triazol-3-yl)-2-isopropylphenyl dihydrogen phosphate], the IC50 in the series on Her2 is 90 nM.

Regarding `CC(C)c1cc(-c2nnc(O)n2-c2ccc3c(ccn3C)c2)c(O)cc1OP(=O)(O)O` [Compound 3, 5-hydroxy-4-(5-hydroxy-4-(1-methyl-1H-indol-5-yl)-4H-1,2,4-triazol-3-yl)-2-isopropylphenyl dihydrogen phosphate], the overt toxicity result in series [1] (61 mg/kg) and in series [2] (100 mg/kg) was “Overt toxicity was not observed” throughout. In addition, the “% T/C value” in series [1] (61 mg/kg body weight i.v., day 83) worked out at 6%; in series [2] (100 mg/kg body weight i.v., day 46), 15%. Also, the “average bodyweight change relative to the start of the study” value in series [1] (61 mg/kg, day 83) is on record as −0.2%; in series [2] (100 mg/kg, day 46), 2.1%. Moreover, in the series on Her2, the IC50 was determined as 88 nM.

Consider `CC(C)c1cc(-c2nnc(O)n2-c2ccc3c(ccn3C)c2)c(O)cc1OP(=O)(O)O` [Compound 4, sodium 5-hydroxy-4-(5-hydroxy-4-(1-methyl-1H-indol-5-yl)-4H-1,2,4-triazol-3-yl)-2-isopropylphenyl phosphate], for which the IC50 in the series with Her2 (phosphate) is 182 nM.

On to `C=CCNC1=C2C[C@@H](C)C[C@H](OC)[C@H](O)[C@@H](C)/C=C(\C)[C@H](OC(N)=O)[C@@H](OC)/C=C\C=C(/C)C(=O)NC(=CC1=O)C2=O` [Compound 17AAG, 17-allylamino-17-demethoxygeldanamycin, reference compound], for which the “degradation of Her2” value in the series with Her2 (0.5 μM, positive control, results not shown) was “partial degradation”.
